# Reference: publication PMC10634346 (Cancer Research Communications, 2023)
# How the values were obtained:
# [1] = system: PHF23, TP53RK, ZFP36 and JUNB mRNA in blood; assay: RNA-seq DEGs in blood of patients (PHF23, TP53RK, ZFP36, JUNB); assay type: in vivo, human
# Description: (§1) Total RNA was extracted from blood of patients and cell lines using RNeasy Plus Mini Kit (QIAGEN, #74136) and cDNA prepared with the Maxima First Strand cDNA Synthesis Kit for RT-PCR (Thermo Fisher Scientific, K1642) according to manufacturer's instructions. The integrity of purified total RNA was evaluated using an Agilent 2100 Bioanalyzer system and RNA 6000 Nano Kit (Agilent, #5067-1511). Differential gene expression analysis was performed (Fios Genomics) from RNA-seq data (Discovery Life Sciences). MYC and MCL1 mRNA levels were measured by qPCR in vitro and in vivo, using a Taqman qPCR system (Thermo Fisher Scientific), TaqMan Fast Universal PCR Master Mix (2X) no AmpErase (#4352042) and TaqMan probes for MYC (Hs00153408_m1) and MCL1 (Hs03043899_m1). RNA-seq data were analyzed using DESeq2 ([35]).
# (§2) Fifteen patients with refractory or relapsed DH-DLBCL or other MYC+ NHL were treated with enitociclib (30 mg, 21-day cycle, once weekly x3) as a 30-minute intravenous infusion on study days 1, 8, and 15 (NCT02635672). Longitudinal gene expression levels were analyzed by RNA-seq, and enitociclib plasma concentrations were measured using LC/MS-MS. The clinical study protocol was approved by the Institutional Review Board of participating institutions and complied with the Declaration of Helsinki, current Good Clinical Practice guidelines, and local laws and regulations. Written informed consent was provided by all participants prior to the initiation of any study-specific procedure.
# (§3) RNA-seq data generated from the analysis of two cell lines treated with the three CDK9 inhibitors was analyzed to investigate the differences in gene expression levels between various posttreatment timepoints and the pretreatment samples. Quality control assessment and exploratory data analysis by principal component analysis (PCA) were done on raw counts and on normalized count data. Normalization of RNA-seq count data was done using trimmed mean of M-values normalization and transformed with voom, resulting in log2 counts per million with associated precision weights. […] Significance values (Padj) were adjusted for multiple testing, by controlling the FDR using the Benjamini–Hochberg procedure. […] RNA-seq data generated from blood samples taken from patients before and after their first dose (C1D1) or after multiple doses, before and after their third dose (C1D15) were analyzed and normalized using the same pipeline as cell lines for comparisons.
# [2] = Clinical pharmacokinetics, plasma LC/MS-MS (NCT02635672); assay type: in vivo, human; settings: subject 3, dose lowered from 30 to 22.5 mg, not included in average
# [3] = system: Myc and Mcl-1 protein in SU-DHL-4 cells; assay: In vitro washout, Myc and Mcl-1 protein Western blot, SU-DHL-4; assay type: cell-based, human; settings: 0.25 µmol/L enitociclib, atuveciclib (1 µmol/L)
# Description: Evaluation of the pharmacodynamic extent and duration of CDK9 inhibition were performed in vitro using the human DLBCL cell lines SU-DHL-4 and SU-DHL-10, harboring MYC amplification and MYC overexpression with P57T mutation, respectively. Cells were seeded 18 hours prior to treatment for 4 hours with one of three CDK9 inhibitors, enitociclib (0.25 and1 µmol/L), atuveciclib (1 µmol/L) or KB-0742 (1 µmol/L), cells were washed, and incubation continued until 48 hours posttreatment. Samples were collected before treatment (−4), immediately after treatment (0), and at 1, 2, 4, 8, 12, 16, 24, and 48 hours after washout for RNA sequencing (RNA-seq), qPCR, and Western blotting analyses.
# The levels of p-Ser2, p-Ser5 and total RNA polymerase II, Myc, Mcl-1, cleaved PARP (cPARP), and cleaved Caspase 3 were assessed by Western blotting and quantified near-infrared detection and background corrected quantification of fluorescence intensity on an Odyssey Imaging System with IRDye secondary antibodies (LI-COR Biosciences). For quantification, the protein levels were normalized to GAPDH or HSP90, expressed as a ratio to DMSO or vehicle control at matched timepoints. The normalized relative protein levels of p-Ser2 were used for a treatment effect comparison by performing an ANOVA using PROC MIXED in SAS. The ANOVA model included treatment, timepoints and their interactions as fixed effects. […]
# MYC mRNA in whole blood = MYC mRNA in whole blood of patients (RNA-seq, PK/PD modeling); assay type: in vivo, human; settings: for maximum extent of inhibition for MYC mRNA: C1D1, 30 mg; for MYC mRNA downregulation: C1D15, third weekly 30 mg dose; for mean fold change mRNA levels of MYC: after C1D1 dose; for mean fold change mRNA levels of MYC / MYC mRNA fold change: RNA-seq; for MYC mRNA fold change: after C1D15 dose
# Description: as §1, §2
# All pharmacokinetic parameters were calculated by noncompartmental methods as described previously ([36]) using WinNonlin v5.3 (Certara LP). Pharmacokinetic/pharmacodynamic modeling was performed using SAAM II v2.3.2 (The Epsilon Group). Pooled pharmacokinetic data from all patients [n = 15 for single dose, cycle 1 day 1 (C1D1) and n = 11 for multiple doses, cycle 1 day 15 (C1D15)] were characterized using a one-compartment model with intravenous dosing. Subsequently, the pharmacokinetic/pharmacodynamic relationship of enitociclib plasma concentrations to MCL1 and MYC mRNA change was characterized using an indirect response model ([37]) on pooled biomarker data where enitociclib concentrations inhibit the formation of MCL1 or MYC mRNA as described by the following equation: […]
# PD is defined as MCL1 or MYC mRNA expression level as a percentage from baseline, t (h) is the time, kin (1/h) is the formation rate of MCL1 or MYC, IC50 (µg/L) is the enitociclib concentration where there is 50% inhibition of PD, kout (h^−1) is the rate constant describing the loss of PD, and n is the hill coefficient. At homeostasis, kin = kout (PD); therefore, kout was replaced by kin/(PD)initial where (PD)initial is equal to 100%. Estimates of pharmacokinetic and pharmacodynamic parameters from pharmacokinetic/pharmacodynamic modeling of pooled data are presented as the estimate followed by CV in parentheses.
# as §3
# [4] = DH-DLBCL and other MYC+ NHL, after C1D1 and C1D15
smiles,measurement,setting,value
COc1cc(F)ccc1-c1cc(Nc2cc(CS(C)(=N)=O)ccn2)ncc1F (centres unmarked) [enitociclib],PHF23 mRNA fold change from predose,[1]; [4],approximately –1 fold change
same,TP53RK mRNA fold change from predose,[1]; [4],–2 fold change
same,Downregulation of ZFP36 and JUNB mRNA levels,"[1]; other MYC+ NHL (n = 3), after C1D1",approximately −2 fold change
same,Downregulation of ZFP36 and JUNB mRNA levels,"[1]; other MYC+ NHL (n = 3), after C1D15 (decreased toward)",~−1
same,Downregulation of ZFP36 and JUNB mRNA levels,"[1]; patients with DH-DLBCL, after C1D1 and C1D15",> −2
same,Tmax,"[2]; human, plasma, intravenous, 22.5 mg, read-out: Multiple dose tmax",29 min
same,Multiple dose AUC0-t,[2],"1,670^b µg^ah/L"
same,sustained Myc and Mcl-1 protein depletion for 48 hours (in words),[3],this was achieved
same,maximum extent of inhibition for MYC mRNA,"MYC mRNA in whole blood; other MYC+ NHL (n = 5), range 69.9%–90.5%",82.3%
same,maximum extent of inhibition for MYC mRNA,"MYC mRNA in whole blood; patients with DH-DLBCL (n = 10), range 73.6%–94.8%",89.6%
same,MYC mRNA downregulation,"MYC mRNA in whole blood; DH-DLBCL (n = 9), range 96.85%–50%",86.71%
same,MYC mRNA downregulation,"MYC mRNA in whole blood; other MYC+ NHL (n = 3), range 53.7%–86.9%",71.08%
same,mean fold change mRNA levels of MYC,MYC mRNA in whole blood; DH-DLBCL,−3.45 (SD 0.68)
same,MYC mRNA fold change,MYC mRNA in whole blood; DH-DLBCL,−3.38 (SD 1.07)
same,IC50,"MYC mRNA in whole blood; Homo sapiens, PK/PD indirect response model, pooled patient blood data, read-out: model estimated unbound IC50 for MYC mRNA",17.4 to 22 nM
same,mean fold change mRNA levels of MYC,MYC mRNA in whole blood; other MYC+ NHL,−2.61 (SD 0.54)
same,MYC mRNA fold change,MYC mRNA in whole blood; other MYC+ NHL,−1.97 (SD 0.75)
